The source of these data is article PMC7144022, “Quinolinecarboxamides Inhibit the Replication of the Bovine Viral Diarrhea Virus by Targeting a Hot Spot for the Inhibition of Pestivirus Replication in the RNA-Dependent RNA Polymerase” (Molecules, 2020).

Data set [1] in a line: Cytotoxicity assay, proliferation of exponentially growing MDBK cells (MTS/PMS). To be noted: bovine. It is filed as cell-based, bovine. On the procedure: Assays were carried out, as described previously.
For data set [2], the system named is BVDV NADL virus. The data set can be described thus: CPE-based antiviral assay, BVDV NADL in MDBK cells (MTS/PMS). As to conditions: for EC50: Bovine viral diarrhea virus isolates and strains, MDBK, 72 h; for S.I.: selectivity index, CC50 vs EC50; for fold increase: sheet CSFCII#, potency relative to TO502-2403 (EC50 0.2 µM).

A value given as a limit tells only on which side of the number the result lay.

One may read the CC50 as the concentration that lowers cell viability or growth by half. Read a high CC50 as better tolerance by the cells. Usually EC50 stands for the concentration giving half of the maximal effect. On to `COc1ccc2nc(NC(=O)c3cc(-c4cccc(F)c4)nc4ccccc34)sc2c1` [CSFC-67, Fc1cccc(c1)c3nc2ccccc2c(c3)C(=O)Nc4nc5ccc(cc5s4)OC], for which, in data set [1], the cytotoxic concentration (CC50) at 5 days was more than 100 µM. For the same compound, in data set [2], the EC50 stood at 0.9 µM, the S.I. is recorded as 111 and the fold increase is listed as 0.22.
Turning to `COc1ccc2nc(NC(=O)c3cc(-c4ccc(F)cc4)nc4ccccc34)sc2c1` [CSFC-68, Fc1ccc(cc1)c3nc2ccccc2c(c3)C(=O)Nc4nc5ccc(cc5s4)OC], the CC50 at 5 days in data set [1] was more than 100 µM. Further, in data set [2], the EC50 turned out to be 0.2 µM, the S.I. is given as 500 and the fold increase was found to be 1.00.
In data set [1], `O=C(Nc1ccn(-c2ccccc2)n1)c1cc(-c2cccc(F)c2)nc2ccccc12` [CSFC-69, Fc1cccc(c1)c3nc2ccccc2c(c3)C(=O)Nc4ccn(n4)c5ccccc5] registered a CC50 at 5 days of more than 100 µM. In addition, in data set [2], the concentration for a half-maximal effect (EC50) was determined as 0.1 µM, the S.I. amounted to 1000 and the fold increase is listed as 2.00.
For `O=C(Nc1ccn(-c2ccccc2)n1)c1cc(-c2ccc(F)cc2)nc2ccccc12` [CSFC-70, Fc1ccc(cc1)c3nc2ccccc2c(c3)C(=O)Nc4ccn(n4)c5ccccc5], the CC50 at 5 days in data set [1] was more than 100 µM. In data set [2], the EC50 was 0.1 µM, the S.I. is reported as 1000 and the fold increase is on record as 2.00.
For `Cc1cccc2sc(NC(=O)c3cc(-c4ccco4)nc4ccc(F)cc34)nc12` [CSFC-71, Fc1cc2c(cc1)nc(cc2C(=O)Nc3nc4c(C)cccc4s3)c5ccco5], in that order: more than 100 µM, 0.1 µM, 1000 and 2.00.
For `Cc1ccc2nc(-c3ccco3)cc(C(=O)Nc3nc4c(C)cccc4s3)c2c1` [CSFC-72, Cc1cc2c(cc1)nc(cc2C(=O)Nc3nc4c(C)cccc4s3)c5ccco5], in that order: more than 100 µM, 8.7 µM, 11 and 0.023.
In turn, `COc1ccc2nc(NC(=O)c3cc(-c4ccco4)nc4ccc(C)cc34)sc2c1` [CSFC-73, O=C(c2cc(nc1ccc(cc12)C)c3ccco3)Nc4nc5ccc(cc5s4)OC] registered a CC50 at 5 days in data set [1] of more than 100 µM. For the same compound, in data set [2], the concentration giving a half-maximal response (EC50) was 11.5 µM, the S.I. is recorded as 9 and the fold increase came to 0.0174.
Take `Cc1cccc2sc(NC(=O)c3cc(-c4ccco4)nc4ccc(CO)cc34)nc12` [CSFC-74, OCc1cc2c(cc1)nc(cc2C(=O)Nc1nc2c(C)cccc2s1)c1ccco1]: the CC50 at 5 days in data set [1] is more than 100 µM. In addition, in data set [2], the midpoint of the response, the EC50, lay at 100 µM; the S.I. is recorded as 1; the fold increase is listed as 0.002.
Regarding `Cc1cc(C)c2nc(-c3ccco3)cc(C(=O)Nc3nc4c(C)cccc4s3)c2c1` [CSFC-75, Cc5cc1c(nc(cc1C(=O)Nc2nc3c(C)cccc3s2)c4ccco4)c(C)c5], the CC50 at 5 days in data set [1] was more than 100 µM. For the same compound, in data set [2], a half-maximal effect (EC50) was put at 5.3 µM, the S.I. was 19 and the fold increase is 0.0377.
In turn, `O=C(Nc1ccn(-c2ccccc2)n1)c1cc(-c2ccccc2F)nc2ccccc12` [CSFC-76, Fc1ccccc1c3nc2ccccc2c(c3)C(=O)Nc4ccn(n4)c5ccccc5] came in with a CC50 at 5 days in data set [1] of more than 100 µM. In data set [2], a half-maximal response (EC50) required 0.1 µM, the S.I. is listed as 1000 and the fold increase is on record as 2.00.
For the compound `COc1ccc2nc(NC(=O)c3cc(-c4ccco4)nc4ccc(OC(F)(F)F)cc34)sc2c1` [CSFC-77, FC(F)(F)Oc1cc2c(cc1)nc(cc2C(=O)Nc3nc4ccc(cc4s3)OC)c5ccco5], the CC50 at 5 days in data set [1] is more than 100 µM. In addition, in data set [2], the EC50 was 100 µM, the S.I. came to 1 and the fold increase is reported as 0.002.
With `Cc1cccc2sc(NC(=O)c3cc(-c4ccsc4)nc4ccccc34)nc12` [CSFC-78, Cc1cccc2sc(nc12)NC(=O)c4cc(nc3ccccc34)c5ccsc5], the CC50 at 5 days in data set [1] is more than 100 µM. For the same compound, in data set [2], the EC50 came out at 0.1 µM, the S.I. was found to be 1000 and the fold increase is 2.00.
`Cc1cccc2sc(NC(=O)c3cc(-c4ccco4)nc4ccc(C(F)(F)OF)cc34)nc12` [CSFC-79, FC(F)(OF)c1cc2c(cc1)nc(cc2C(=O)Nc1nc2c(C)cccc2s1)c1ccco1]: in data set [1], the CC50 at 5 days was more than 100 µM. In data set [2], a half-maximal response (EC50) required 2.5 µM, the S.I. stood at 40 and the fold increase is given as 0.08.
For `Cc1cccc2sc(NC(=O)c3cc(-c4ccco4)nc4c(F)cccc34)nc12` [CSFC-80, Fc5cccc1c5nc(cc1C(=O)Nc2nc3c(C)cccc3s2)c4ccco4], the CC50 at 5 days in data set [1] was more than 100 µM. Besides, in data set [2], a half-maximal response (EC50) required 0.9 µM, the S.I. is 111 and the fold increase worked out at 0.22.
As to `COc1ccc2nc(NC(=O)c3cc(-c4ccco4)nc4ccc(Cl)cc34)sc2c1` [CSFC-81, Clc1cc2c(cc1)nc(cc2C(=O)Nc3nc4ccc(cc4s3)OC)c5ccco5], the CC50 at 5 days in data set [1] was more than 100 µM. Further, in data set [2], a half-maximal response (EC50) required 24.5 µM, the S.I. is on record as 4 and the fold increase is listed as 0.00816.
For the compound `COc1ccc2nc(NC(=O)c3cc(-c4ccsc4)nc4ccccc34)sc2c1` [CSFC-82, O=C(c2cc(nc1ccccc12)c3ccsc3)Nc4nc5ccc(cc5s4)OC], the half-maximal cytotoxic concentration (CC50) at 5 days in data set [1] was more than 100 µM. In data set [2], it took 0.2 µM to reach a half-maximal effect (EC50), the S.I. is reported as 500 and the fold increase amounted to 1.00.
With `COc1ccc2nc(NC(=O)c3cc(-c4ccco4)nc4c(F)cccc34)sc2c1` [CSFC-83, Fc5cccc1c5nc(cc1C(=O)Nc2nc3ccc(cc3s2)OC)c4ccco4], in data set [1], the CC50 at 5 days was more than 100 µM. In data set [2], a half-maximal response (EC50) required 0.07 µM, the S.I. turned out to be 1429 and the fold increase is given as 2.86.
On the same counts, the results for `Cc1cccc2sc(NC(=O)c3cc(-c4ccco4)nc4ccc(Cl)cc34)nc12` [CSFC-84, Clc1cc2c(cc1)nc(cc2C(=O)Nc3nc4c(C)cccc4s3)c5ccco5] are more than 100 µM, 11.5 µM, 9 and 0.0174.
Turning to `Cc1cccc2sc(NC(=O)c3cc(-c4cc(Cl)sc4Cl)nc4ccccc34)nc12` [CSFC-85, Clc1cc(c(Cl)s1)c3nc2ccccc2c(c3)C(=O)Nc4nc5c(C)cccc5s4], the CC50 at 5 days in data set [1] was more than 100 µM. Also, in data set [2], the EC50 amounted to 0.3 µM, the S.I. came to 333 and the fold increase was 0.67.
As to `COc1ccc2nc(NC(=O)c3cc(-c4cc(C)oc4C)nc4ccccc34)sc2c1` [CSFC-86, O=C(c2cc(nc1ccccc12)c3cc(oc3C)C)Nc4nc5ccc(cc5s4)OC], in data set [1], the half-maximal cytotoxic concentration (CC50) at 5 days is more than 100 µM. In addition, in data set [2], the EC50 came to 0.3 µM, the S.I. amounted to 333 and the fold increase stood at 0.67.
`Cc1cccc2sc(NC(=O)c3cc(-c4cccn4C)nc4ccccc34)nc12` [CSFC-88, Cn1cccc1c3nc2ccccc2c(c3)C(=O)Nc4nc5c(C)cccc5s4]: the CC50 at 5 days in data set [1] was more than 100 µM. Also, in data set [2], the 50% effective concentration (EC50) is 0.2 µM, the S.I. was determined as 500 and the fold increase is 1.00.
Compound `COc1cccc2sc(NC(=O)c3cc(-c4cccs4)nc4ccccc34)nc12` [CSFC-89, COc1cccc2sc(nc12)NC(=O)c4cc(nc3ccccc34)c5cccs5] had a CC50 at 5 days in data set [1] of more than 100 µM. In data set [2], the EC50 was 0.6 µM, the S.I. was found to be 167 and the fold increase is recorded as 0.33.
As to `Cc1cccc2sc(NC(=O)c3cc(-c4cc5ccccc5o4)nc4ccccc34)nc12` [CSFC-90, Cc1cccc2sc(nc12)NC(=O)c4cc(nc3ccccc34)c5cc6ccccc6o5], the CC50 at 5 days in data set [1] was more than 100 µM. For the same compound, in data set [2], the EC50 worked out at 3 µM, the S.I. is reported as 33 and the fold increase is on record as 0.07.
`COc1ccc(-n2ccc(NC(=O)c3cc(-c4ccc(F)cc4)nc4ccccc34)n2)cc1` [CSFC-91, Fc1ccc(cc1)c3nc2ccccc2c(c3)C(=O)Nc4ccn(n4)c5ccc(OC)cc5] showed a CC50 at 5 days in data set [1] of more than 100 µM. For the same compound, in data set [2], the EC50 turned out to be 1 µM, the S.I. turned out to be 100 and the fold increase came out at 0.20.
On the same counts, the results for `O=C(Nc1ccn(-c2ccccc2)n1)c1cc(-c2cc3ccccc3o2)nc2ccccc12` [CSFC-92, O=C(Nc1ccn(n1)c2ccccc2)c3cc(nc4ccccc34)c5cc6ccccc6o5] are more than 100 µM, 0.3 µM, 333 and 0.67.
Consider `O=C(Nc1ccn(-c2ccccc2)n1)c1cc(-c2cccs2)nc2ccc(F)cc12` [CSFC-93, O=C(Nc1ccn(n1)c2ccccc2)c4cc(nc3ccc(F)cc34)c5cccs5], for which the CC50 at 5 days in data set [1] is more than 100 µM. In data set [2], the response was half-maximal at 0.06 µM (EC50), the S.I. was 1667 and the fold increase is 3.33.
For `O=C(Nc1nc2ccc(C(F)(F)F)cc2s1)c1cc(-c2ccccc2)nc2ccccc12` [CSFC-94, FC(F)(F)c1ccc2nc(sc2c1)NC(=O)c4cc(nc3ccccc34)c5ccccc5], in that order: more than 100 µM, 100 µM, 1 and 0.002.
In data set [1], `Cc1cccc2sc(NC(=O)c3cc(-c4cccs4)nc4ccc(Br)cc34)nc12` [CSFC-95, Brc1cc2c(cc1)nc(cc2C(=O)Nc3nc4c(C)cccc4s3)c5cccs5] yielded a CC50 at 5 days of more than 100 µM. Also, in data set [2], a half-maximal effect (EC50) was put at 3.1 µM, the S.I. is given as 32 and the fold increase was 0.0645.
On the same counts, the results for `O=C(Nc1ccn(-c2ccccc2)n1)c1cc(-c2ccccn2)nc2ccccc12` [CSFC-96, O=C(c2cc(nc1ccccc12)c3ccccn3)Nc4ccn(n4)c5ccccc5] are more than 100 µM, 0.2 µM, 500 and 1.00.
In turn, `O=C(Nc1ccn(-c2ccccc2)n1)c1cc(-c2cccs2)nc2ccc(I)cc12` [CSFC-97, O=C(Nc1ccn(n1)c2ccccc2)c4cc(nc3ccc(I)cc34)c5cccs5] came in with a CC50 at 5 days in data set [1] of more than 100 µM. Besides, in data set [2], the response was half-maximal at 4.1 µM (EC50), the S.I. is 24 and the fold increase was found to be 0.05.
